Measured values as given in patent US20240327351A1, “AMIDE AND ETHER SUBSTITUTED N-(1H-INDOL-7-YL)BENZENESULFONAMIDES AND USES THEREOF” (TRIANA BIOMEDICINES, INC., priority 2021, published 2024).

Columns and labels:
DCAF15/RBM39 = DCAF15/RBM39 (Homo sapiens, UniProt Q14498+Q66K64); assay: AlphaLISA compound-induced DCAF15-RBM39 ternary complex formation; type: binding; conditions: His-tagged DCAF15 complex and biotin-carrying RBM39
Experimental: Example 6: Quantitative Evaluation of Compound-Induced Ternary Complex Formation Using Amplified Luminescent Proximity Homogeneous Assay
Compound-induced DCAF15-RBM39 ternary complex formation was monitored using AlphaLISA® assays (Perkin Elmer, Waltham, MA). Test compounds were first collected in a 384-well microplate (cat. #781280, Grenier Bio-One, Monroe, NC) as 2 mM stocks in 100% dimethyl sulfoxide (DMSO). These stocks were then serially diluted in DMSO by 3-fold into a new plate (cat. #781280, Grenier Bio-One, Monroe, NC) using a Mosquito HTS dispenser (mosquito@ HTS, SPT Labtech, Boston, MA). 0.2 ul of these diluted stocks were then dispensed into a 384-well Optiplate (cat. #6007290, Perkin Elmer, Waltham, MA) in duplicate wells, to assemble the final assay plate consisting of duplicated dose ranges. Separately, a protein mixture consisting of His-tagged DCAF15 complex and biotin-carrying RBM39, each at 408 nM (2.04×), was prepared in 50 mM HEPES, pH 7.5, 100 mM NaCl, 2 mM MgCl2, 0.1% BSA, 2 mM TCEP, 0.05% Tween-20 (dilution buffer). 9.8 ul of this protein mixture was then mixed with the compounds in the assay plate and incubated for one hour at room temperature. Reaction mixtures with no compounds added were included as negative controls, while a His-tagged and biotinylated GST protein was included to track general assay performance. Nickel Chelate AlphaLISA Acceptor beads (cat. #AL108M, Perkin Elmer, MA) and AlphaScreen Streptavidin Donor beads (cat. #6760002, Perkin Elmer, Waltham, MA) were prepared separately in the dilution buffer as 4× stocks (80 ug/ml). The beads were then added to the assay plate sequentially with incubation at room temperature for 1-2 hours after each addition. Signals were recorded using EnVision 2104 Multilabel Plate Reader (Perkin Elmer, Waltham, MA) and titration curves were generated in GraphPad Prism (7.00, GraphPad, La Jolla, CA).

DCAF15 = DCAF15 (Homo sapiens, UniProt Q66K64); assay: HTRF competition assay, binary interaction between compounds and DCAF15; type: binding; conditions: competition with Alexa Fluor 647 tracer, His-tagged DCAF15 complex
Experimental: Example 7: Measurement of Binary Interaction Between Compounds And DCAF15 Using Homogeneous Time Resolved Fluorescence (HTRF)
DCAF15 interactions with test compounds were monitored using HTRF competition assays (Cisbio, Bedford, MA). Test compounds were first collected in a 384-well microplate (cat. #781280, Grenier Bio-One, Monroe, NC) as 10 mM stocks in 100% dimethyl sulfoxide (DMSO). A second stock plate (cat. #781280, Grenier Bio-One, Monroe, NC) was prepared through 3-fold serial dilution in DMSO of the afore-mentioned stocks using a Mosquito HTS dispenser (mosquito@ HTS, SPT Labtech, Boston, MA). 0.2 ul of these diluted stocks were then dispensed into a 384-well Optiplate (cat. #6007290, Perkin Elmer, Waltham, MA) in duplicate wells, to assemble the assay plate. The tracer molecule containing an Alexa Fluor 647 probe was prepared in 25 mM HEPES pH 7.5, 100 mM NaCl, 0.1 mg/ml BSA, 0.005% Tween 20, 0.5 mM TCEP (dilution buffer) to 612 nM (2.04×). Separately, His-tagged DCAF15 complex was prepared at 32 nM (4×) in the dilution buffer, and mAb Anti-6His-Eu cryptate Gold (cat. #61H12KLA, Cisbio, Bedford, MA) at 4× dilution in the detection buffer (cat. #61 DB9RDF, Cisbio, Bedford, MA). These two solutions were mixed and incubated for 15 min at room temperature. 9.8 ul of the tracer solution and 10 ul of the DCAF15/mAb Anti-6His-Eu cryptate Gold mixture were added sequentially to each well in the assay plate. Reaction mixtures with no DCAF15 added were included as positive controls. The final mixture was incubated for an hour at room temperature and spun down briefly before data collection at 615 nm and 666 nm using En Vision 2104 Multilabel Plate Reader (Perkin Elmer, Bedford, MA). Binding was estimated based on ratiometric analysis and titration curves were generated in GraphPad Prism (7.00, GraphPad, La Jolla, CA).

Row | Compound | EC50 (DCAF15/RBM39) [nM] | IC50 (DCAF15) [nM]
1 | CCN(CC)C(=O)c1ccc(CNC(=O)c2cccc(S(=O)(=O)Nc3ccc(Cl)c4c(Cl)c[nH]c34)c2F)cc1 [Compound 170] | 1000 to 10000 | 1000 to 10000
2 | CCN(CC)C(=O)c1ccc(CNC(=O)c2ccc(S(=O)(=O)Nc3ccc(Cl)c4c(Cl)c[nH]c34)c(F)c2)cc1 [Compound 171] | 1000 to 10000 | 1000 to 10000
3 | Cc1ccccc1Oc1ccccc1CNC(=O)c1cccc(S(=O)(=O)Nc2ccc(Cl)c3c(Cl)c[nH]c23)c1F [Compound 172] | 1000 to 10000 | 1000 to 10000
4 | Cc1cc(CNC(=O)c2cccc(S(=O)(=O)Nc3ccc(Cl)c4c(Cl)c[nH]c34)c2F)nn1C [Compound 174] | < 1000 | 1000 to 10000
5 | Cc1cc(CNC(=O)c2ccc(S(=O)(=O)Nc3ccc(Cl)c4c(Cl)c[nH]c34)c(F)c2)nn1C [Compound 175] | < 1000 | 1000 to 10000
6 | CCc1nc(CN(C)C(=O)c2cccc(S(=O)(=O)Nc3ccc(Cl)c4c(Cl)c[nH]c34)c2F)no1 [Compound 176] | < 1000 | 1000 to 10000
7 | CCc1nc(CN(C)C(=O)c2ccc(S(=O)(=O)Nc3ccc(Cl)c4c(Cl)c[nH]c34)c(F)c2)no1 [Compound 177] | < 1000 | 1000 to 10000
8 | Cc1ccnc(CNC(=O)c2ccc(S(=O)(=O)Nc3ccc(Cl)c4c(Cl)c[nH]c34)c(F)c2)c1 [Compound 179] | < 1000 | 1000 to 10000
9 | Cc1ccnc([C@@H](NC(=O)c2ccc(S(=O)(=O)Nc3ccc(Cl)c4c(Cl)c[nH]c34)c(F)c2)C2CC2)c1 [Compound 180] | 1000 to 10000 | 1000 to 10000
10 | COc1cccc(Oc2ccc(CNC(=O)c3ccc(S(=O)(=O)Nc4ccc(Cl)c5c(Cl)c[nH]c45)c(F)c3)cn2)c1 [Compound 182] | > 100000 | > 100000
11 | Cc1cnc(CNC(=O)c2cccc(S(=O)(=O)Nc3ccc(Cl)c4c(Cl)c[nH]c34)c2F)cn1 [Compound 183] | < 1000 | 1000 to 10000
12 | Cc1ccnc([C@@H](NC(=O)c2cccc(S(=O)(=O)Nc3ccc(Cl)c4c(Cl)c[nH]c34)c2F)C2CC2)c1 [Compound 185] | 1000 to 10000 | 1000 to 10000
13 | O=C(NCCOCC1CC1)c1ccc(S(=O)(=O)Nc2ccc(Cl)c3c(Cl)c[nH]c23)c(F)c1 [Compound 187] | < 1000 | 1000 to 10000
14 | O=C(NCCOC1CCS(=O)(=O)CC1)c1cccc(S(=O)(=O)Nc2ccc(Cl)c3c(Cl)c[nH]c23)c1F [Compound 188] | < 1000 | 1000 to 10000
15 | O=C(NCCOC1CCS(=O)(=O)CC1)c1ccc(S(=O)(=O)Nc2ccc(Cl)c3c(Cl)c[nH]c23)c(F)c1 [Compound 189] | < 1000 | < 1000
16 | CCS(=O)(=O)CCNC(=O)c1cccc(S(=O)(=O)Nc2ccc(Cl)c3c(Cl)c[nH]c23)c1F [Compound 190] | < 1000 | 1000 to 10000
17 | CCS(=O)(=O)CCNC(=O)c1ccc(S(=O)(=O)Nc2ccc(Cl)c3c(Cl)c[nH]c23)c(F)c1 [Compound 191] | < 1000 | < 1000
18 | CN1CC(CCNC(=O)c2cccc(S(=O)(=O)Nc3ccc(Cl)c4c(Cl)c[nH]c34)c2F)C1 [Compound 192] | < 1000 | < 1000
19 | CN1CC(CCNC(=O)c2ccc(S(=O)(=O)Nc3ccc(Cl)c4c(Cl)c[nH]c34)c(F)c2)C1 [Compound 193] | < 1000 | 1000 to 10000
20 | CN(C)C(=O)C[C@H](NC(=O)c1ccc(S(=O)(=O)Nc2ccc(Cl)c3c(Cl)c[nH]c23)c(F)c1)c1ccccc1 [Compound 197] | < 1000 | 1000 to 10000
21 | Cc1ccc(CCNC(=O)c2cccc(S(=O)(=O)Nc3ccc(Cl)c4c(Cl)c[nH]c34)c2F)o1 [Compound 198] | 1000 to 10000 | 1000 to 10000
22 | O=C(NCCc1ccccn1)c1cccc(S(=O)(=O)Nc2ccc(Cl)c3c(Cl)c[nH]c23)c1F [Compound 200] | < 1000 | < 1000
23 | O=C(NCCc1ccccn1)c1ccc(S(=O)(=O)Nc2ccc(Cl)c3c(Cl)c[nH]c23)c(F)c1 [Compound 201] | < 1000 | 1000 to 10000
24 | COCCOCCCNC(=O)c1ccc(S(=O)(=O)Nc2ccc(Cl)c3c(Cl)c[nH]c23)c(F)c1 [Compound 203] | < 1000 | 1000 to 10000
25 | O=C(NCCCOCc1ccccc1)c1cccc(S(=O)(=O)Nc2ccc(Cl)c3c(Cl)c[nH]c23)c1F [Compound 204] | 1000 to 10000 | 1000 to 10000
26 | O=C(NCCCC(=O)N1CCCC1)c1ccc(S(=O)(=O)Nc2ccc(Cl)c3c(Cl)c[nH]c23)c(F)c1 [Compound 207] | < 1000 | < 1000
27 | CC[C@H](NC(=O)c1cccc(S(=O)(=O)Nc2ccc(Cl)c3c(Cl)c[nH]c23)c1F)c1ccc2c(c1)OCCO2 [Compound 210] | 1000 to 10000 | 1000 to 10000
28 | CC[C@H](NC(=O)c1ccc(S(=O)(=O)Nc2ccc(Cl)c3c(Cl)c[nH]c23)c(F)c1)c1ccc2c(c1)OCCO2 [Compound 211] | 1000 to 10000 | 1000 to 10000

Second part, the compound after the results:

Row | EC50 (DCAF15/RBM39) [nM] | IC50 (DCAF15) [nM] | Compound
29 | > 100000 | > 100000 | Cc1ccccc1Oc1ccccc1CNC(=O)c1ccc(S(=O)(=O)Nc2ccc(Cl)c3c(Cl)c[nH]c23)c(F)c1 [Compound 173]
30 | 1000 to 10000 | 1000 to 10000 | Cc1ccnc(CNC(=O)c2cccc(S(=O)(=O)Nc3ccc(Cl)c4c(Cl)c[nH]c34)c2F)c1 [Compound 178]
31 | 1000 to 10000 | 1000 to 10000 | COc1cccc(Oc2ccc(CNC(=O)c3cccc(S(=O)(=O)Nc4ccc(Cl)c5c(Cl)c[nH]c45)c3F)cn2)c1 [Compound 181]
32 | > 100000 | < 1000 | Cc1cnc(CNC(=O)c2ccc(S(=O)(=O)Nc3ccc(Cl)c4c(Cl)c[nH]c34)c(F)c2)cn1 [Compound 184]
33 | 1000 to 10000 | 1000 to 10000 | O=C(NCCOCC1CC1)c1cccc(S(=O)(=O)Nc2ccc(Cl)c3c(Cl)c[nH]c23)c1F [Compound 186]
34 | 1000 to 10000 | 1000 to 10000 | CN(C)C(=O)c1ccc(CCNC(=O)c2cccc(S(=O)(=O)Nc3ccc(Cl)c4c(Cl)c[nH]c34)c2F)cc1 [Compound 194]
35 | 1000 to 10000 | 1000 to 10000 | CN(C)C(=O)c1ccc(CCNC(=O)c2ccc(S(=O)(=O)Nc3ccc(Cl)c4c(Cl)c[nH]c34)c(F)c2)cc1 [Compound 195]
36 | 1000 to 10000 | 1000 to 10000 | CN(C)C(=O)C[C@H](NC(=O)c1cccc(S(=O)(=O)Nc2ccc(Cl)c3c(Cl)c[nH]c23)c1F)c1ccccc1 [Compound 196]
37 | 1000 to 10000 | 1000 to 10000 | Cc1ccc(CCNC(=O)c2ccc(S(=O)(=O)Nc3ccc(Cl)c4c(Cl)c[nH]c34)c(F)c2)o1 [Compound 199]
38 | < 1000 | 1000 to 10000 | COCCOCCCNC(=O)c1cccc(S(=O)(=O)Nc2ccc(Cl)c3c(Cl)c[nH]c23)c1F [Compound 202]
39 | < 1000 | > 100000 | O=C(NCCCOCc1ccccc1)c1ccc(S(=O)(=O)Nc2ccc(Cl)c3c(Cl)c[nH]c23)c(F)c1 [Compound 205]
40 | < 1000 | < 1000 | O=C(NCCCC(=O)N1CCCC1)c1cccc(S(=O)(=O)Nc2ccc(Cl)c3c(Cl)c[nH]c23)c1F [Compound 206]
41 | > 100000 | > 100000 | O=C(NCCCc1ccc(Cl)cc1)c1cccc(S(=O)(=O)Nc2ccc(Cl)c3c(Cl)c[nH]c23)c1F [Compound 208]
42 | 1000 to 10000 | > 100000 | O=C(NCCCc1ccc(Cl)cc1)c1ccc(S(=O)(=O)Nc2ccc(Cl)c3c(Cl)c[nH]c23)c(F)c1 [Compound 209]
